# Assay: gradient 5% acetonitrile 3 min, to 50% in 2 min, to 85% in 15 min, held 3 min, 100 µL/min
# Conditions: column: Zorbax Extend-C18 2.1 x 50 mm; eluents: water / acetonitrile, 0.1% formic acid
# Method in brief: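 Retention times come from adduct peaks that were picked computationally and then checked by hand. The standards, pure and pooled in mixtures of ~100 molecules, were run on a Zorbax Extend-C18 column (2.1 × 50 mm, 1.8 μm) at 100 μL/min with water and acetonitrile, each with 0.1% formic acid. Detection was by quadrupole time-of-flight mass spectrometry in positive and negative ionization mode, with a dead volume of 40 μL and a dwell volume of 900 μL.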
row,SMILES,RP-LC retention time
1,CCc1csc(-c2ccc(N3CCN(C(=O)c4ccc(Cl)nc4)CC3)nc2)n1,832 s
2,O=C(NOCC1CC1)c1ccc(F)c(F)c1Nc1ccc(I)cc1Cl,1150 s
3,Cc1nccn1CC(=O)N1CCCC(OCc2nc(C3CC3)no2)C1 (stereo not drawn),577 s
4,CCCNC(=O)C1CCCN(c2ccc(SCC(=O)Nc3ccc(C)c(Cl)c3)nn2)C1 (stereo not drawn),748 s
5,CCN(CC)c1ncc2c(n1)CCC(C(=O)Nc1ccc(OC)cc1OC)C2 (stereo not drawn),726 s
6,O=C(O)c1cn(-c2ccccc2F)nn1,650 s
7,O=C(Cc1nc(-c2ccccn2)n[nH]1)Nc1ccccc1,596 s
8,Cc1ccc(-c2nc(C3CC(=O)N(c4ccc(F)cc4)C3)no2)cc1C (stereo not drawn),1100 s
9,CCOc1ccc2nc(N3CCCC(C(=O)N4CCC(Cc5ccccc5)CC4)C3)sc2c1 (stereo not drawn),1180 s
10,CCCc1ccc(S(=O)(=O)N2CCC3(CC2)CCC(O)(CN2CCCC2)CC3)cc1,735 s
11,O=C(NCc1cccc(F)c1)c1cc2n(n1)CCCC2,782 s
12,COC(=O)c1sccc1NC(=O)N1CCCn2nc(-c3ccncc3)cc2C1,647 s
13,CCc1noc(-c2ccc(-n3cnc(C(=O)N4CCOCC4)c3)nc2)n1,691 s
14,COc1ccc(-c2nc3cnccn3c2Nc2ccc(C(=O)NCCN(C)C)cc2)cc1OC,576 s
15,O=C1COc2ccc(S(=O)(=O)N3CCC(C(=O)NCc4ccco4)CC3)cc2N1,697 s
16,COC1CCC12CCN(C(=O)c1ccc(C)s1)CC2 (stereo not drawn),895 s
17,COc1ccccc1CC(=O)Nc1cnc(-c2cccnc2)nc1,663 s
18,O=C1NC(=S)S/C1=C\c1ccccc1C(=O)O,835 s
19,O=C(Cn1cnc(-c2nc(-c3ccccc3)cs2)c1)N1CCN(c2ccccc2)CC1,853 s
20,OCCNCc1ccc(-c2ccc(Cl)cc2)o1,966 s
21,O=C(Cn1c(=O)oc2ccc(Cl)cc21)NC1CCCCC1,878 s
22,CN1c2cc(F)ccc2C(=O)NC12CCN(C(=O)c1ccccc1F)CC2,751 s
23,NC(=O)C1CCN(C(=O)COCc2cc(-c3cccs3)on2)CC1,640 s

row,SMILES,RP-LC retention time
1,CNc1nc(Nc2ccccc2OC)nc2ccccc12,659 s
2,COc1ccc(Nc2cc(C(=O)N3CCCC3)nc3ccc(C)cc23)cc1,659 s
3,O=c1ccc(N2CCCN(S(=O)(=O)c3ccc(F)cc3F)CC2)nn1-c1ccccc1,842 s
4,COc1cccc(N2CCN(c3ccnc(SCC(=O)Nc4cc(F)ccc4Cl)n3)CC2)c1,836 s
5,CN(C)C[C@@H]1CN(c2ncccn2)C[C@H]1NS(=O)(=O)Cc1ccc(F)cc1,590 s
6,Cc1ccc(S(=O)(=O)CCc2nc(-c3cccc(-c4ccnn4C)c3)no2)cc1,910 s
7,Cc1nn(C(C)C(=O)NCCCN2CCCCC2)c(=O)c2c1sc1ccccc12 (stereo not drawn),680 s
8,Cc1ccc(CC(=O)NC2CCN(c3nnc4cccc(C)n34)CC2)cc1,680 s
9,Cc1noc(-c2nn(C)c3c2CN(C(=O)c2cccc(Br)c2)CC3)n1,783 s
10,O=C(NCc1ccccc1F)C1=C2CCCN2c2ccc(F)cc2S1(=O)=O,868 s
11,CC(C)c1noc(C2CCCN(S(=O)(=O)c3cn(C)cn3)CCC(=O)NCC2)n1 (stereo not drawn),640 s
12,COc1cc(-c2nc(C3CC(=O)N(c4ccc(C)cc4)C3)no2)cc(OC)c1OC (stereo not drawn),834 s
13,CCCS(=O)(=O)NCCN1C(=O)C2(CCCCC2)C1c1ccccc1 (stereo not drawn),898 s
14,OCCOCCNCc1ccc(-c2ccccc2F)o1,616 s
15,O=C(Cn1c(=O)c2nncn2c2ncccc21)NCc1ccc(Cl)cc1,671 s
16,CC(C)OCCCNC(=O)c1ccc2c(c1)nc1n2CCCCC1,606 s
17,CCn1cc(-c2nc(C(=O)Nc3ccccc3C)cs2)c2cccnc21,1120 s
18,CC(C)c1ccc(-n2ccnc(NC(=O)Nc3ccc(F)cc3)c2=O)cc1,1100 s
19,Cc1ccc(Cl)cc1NC(=O)CSc1ccc(N2CCOCC2)nn1,766 s
20,CCCNC(=O)C1CCCN(c2ccc(SCC(=O)NCc3ccc(C)c(C)c3)nn2)C1 (stereo not drawn),698 s
21,O=C(C1CCCN(c2ccc(N3CCOCC3)nn2)C1)N1CCN(c2ccccc2)CC1 (stereo not drawn),635 s
22,Cc1ccccc1-c1cn2ccn(-c3ccc4c(c3)CCC4)c(=O)c2n1,962 s
23,COc1ccc(OC)c(C2CN(C(=O)C3CCCC3)CC2C(=O)N2CCCCC2)c1 (stereo not drawn),831 s

row,SMILES,RP-LC retention time
1,NC(=O)[C@@H]1C[C@H](Oc2ccccc2)CN1C1CCC1,571 s
2,CCN1CCN(C(=O)CN2C(=O)C3CCCCN3c3ccc(S(=O)(=O)N4CCCC4)cc32)CC1 (stereo not drawn),644 s
3,Cc1ccc(CNS(=O)(=O)c2ccc(-c3nnc(C4CC4)o3)o2)o1,816 s
4,CC1CCCCN1CCNC(=O)C1CCN(c2nc3cccnc3s2)CC1 (stereo not drawn),582 s
5,Cc1cc(Cl)ccc1OCc1nc(-c2ccc3c(c2)nnn3CCC(=O)N2CCOCC2)no1,974 s
6,CN(C)c1ccc(C(=O)N2CCN(c3cc(-c4cccs4)[nH]n3)CC2)cc1,714 s
7,Cc1cc(=O)n(Cc2ccc(OC(F)(F)F)cc2)c(Nc2ccc(F)c(F)c2)n1,1300 s
8,CC(C)c1cnc2c(c1SCc1cccnc1)c(=O)n(C)c(=O)n2C,691 s
9,COc1cccc(-n2nnc(-c3nc(-c4ccccc4OC)cs3)c2N)c1,1120 s
10,Cc1oc(C2CCN(S(=O)(=O)c3ccc(F)cc3)CC2)nc1C(=O)N1CCCC1,890 s
11,O=C1NC2=C(C(=O)N(CCC3=CCCCC3)C2)C(c2ccccc2F)N1 (stereo not drawn),684 s
12,Cc1ccc(NC(=O)CSc2nc(N3CCCCC3)nc3ccccc23)c(Cl)c1,901 s
13,Cc1cc(C)cc(NC(=O)Nc2nccn(-c3cccc(Cl)c3)c2=O)c1,1110 s
14,Cc1ccc2oc(-c3nnc(C(=O)NCCCN4CCN(C)CC4)o3)c(C)c2c1,622 s
15,CNC(=O)c1c(C)c(-c2ccccc2)n(C)c1C,812 s
16,CC(=O)c1c(N(C)CCO)nc2ccc(Cl)cc2c1-c1ccccc1,834 s
17,Cc1ccc2c(=O)c3c([nH]c2c1C)CCN(CC(=O)Nc1cccc(Cl)c1C)C3,661 s
18,O=C(c1ccc(Cl)s1)N1CCN(c2nnc3ccccn23)CC1,675 s
19,CCS(=O)(=O)Nc1ccc(C2(C(=O)NCc3ccccc3)CCCCC2)cc1,903 s
20,Clc1ccccc1-c1ccc(CNc2ncn[nH]2)o1,676 s
21,O=S(=O)(NCCN1CCN(c2ccccc2F)CC1)c1cc(F)ccc1F,594 s
22,CC(C)NC(=O)c1ccc2c(c1)Sc1ncccc1C(=O)N2C(C)C,736 s

# From the METLIN SMRT retention time set (Domingo-Almenara et al. 2019)
